Values after ≈ are worked out from the molar mass of the structure shown. Active and inactive are the calls of the source. The rule behind the calls is not given here.
Key:
Staphylococcus aureus [1] = assay: Antibacterial activity against methicillin resistant Staphylococcus aureus ATCC 43300 infected in ICR mouse systemic infection model at 5 mg/kg, ip pretreated with bacteria for 30 mins followed by compound addition and measured for 7 days; assay type: functional; conditions: time 7 day
Staphylococcus aureus [2] = assay: Antibacterial activity against methicillin resistant Staphylococcus aureus ATCC 43300 infected in ICR mouse systemic infection model assessed as reduction in bacterial burden in kidney at 2.5 mg/kg, ip pretreated with bacteria for 30 mins followed by compound addition and measured for 7 days; assay type: functional, organism-based; conditions: time 7.0 day
[3] = Half-life in ICR mouse at 5 mg/kg, po; assay type: ADME, organism-based; conditions: in vivo
Staphylococcus aureus [4] = assay: Antibacterial activity against methicillin resistant Staphylococcus aureus ATCC 43300 infected in ICR mouse systemic infection model at 2.5 mg/kg, ip pretreated with bacteria for 30 mins followed by compound addition and measured for 7 days; assay type: functional; conditions: time 7 day
[5] = MRT(0 to infinity) in ICR mouse at 5 mg/kg, po; assay type: ADME, organism-based; conditions: in vivo
[6] = MRT(0 to t) in ICR mouse at 1 mg/kg, iv; assay type: ADME, organism-based; conditions: in vivo
[7] = Cmax in ICR mouse at 5 mg/kg, po; assay type: ADME, organism-based; conditions: in vivo
Staphylococcus aureus [8] = assay: Bactericidal activity against Staphylococcus aureus ATCC 29213 incubated for 18 to 24 hrs; assay type: functional; conditions: time 18-24 hrs
[9] = Tmax in ICR mouse at 5 mg/kg, po; assay type: ADME, organism-based; conditions: in vivo
Staphylococcus aureus [10] = assay: Antibacterial activity against Staphylococcus aureus ATCC 29213 incubated for 18 hrs by serial two-fold dilution method; assay type: functional
Staphylococcus aureus [11] = assay: Drug resistance development in Staphylococcus aureus ATCC 29213 assessed as increase in MIC value measured after 8 passages by broth microdilution method; assay type: functional
Staphylococcus aureus [12] = assay: Antibacterial activity against methicillin resistant Staphylococcus aureus ATCC 33592 assessed as leakage of cellular components at MIC incubated for 1 to 6 hrs by SEM analysis; assay type: functional, organism-based; conditions: time 1-6 hrs
[13] = test system: Staphylococcus epidermidis; assay: Bactericidal activity against Staphylococcus epidermidis ATCC 12228 incubated for 18 to 24 hrs; assay type: functional; conditions: time 18-24 hrs
Staphylococcus aureus [14] = assay: Bactericidal activity against methicillin resistant Staphylococcus aureus ATCC 33592 incubated for 18 to 24 hrs; assay type: functional; conditions: time 18-24 hrs
[15] = Acute toxicity in ICR mouse assessed as aberrant behavior at 2 g/kg, po measured after 7 days; assay type: organism-based; conditions: in vivo, 2000 mg/kg, 168 h, time 7 day
Staphylococcus aureus [16] = assay: Drug resistance development in Staphylococcus aureus ATCC 29213 assessed as increase in MIC value measured after 7 passages by broth microdilution method; assay type: functional, organism-based
[17] = Acute toxicity in ICR mouse assessed as change in body weight at 2 g/kg, po measured after 7 days; assay type: organism-based; conditions: in vivo, 2000 mg/kg, 168 h, time 7 day
Staphylococcus aureus [18] = assay: Potency index, ratio of griseofamine A MIC to test compound MIC for antibacterial activity against methicillin resistant Staphylococcus aureus ATCC 33592; assay type: functional
Staphylococcus aureus [19] = assay: Inhibition of biofilm formation in methicillin resistant Staphylococcus aureus ATCC 33592 assessed as decrease in biofilm survival rate incubated for 48 hrs by crystal violet staining based optical microscopic analysis; assay type: functional, organism-based
Staphylococcus aureus [20] = assay: Antibacterial activity against methicillin resistant Staphylococcus aureus ATCC 43300 incubated for 18 hrs by serial two-fold dilution method; assay type: functional
[21] = MRT(0 to t) in ICR mouse at 5 mg/kg, po; assay type: ADME, organism-based; conditions: in vivo
[22] = Bioavailability in ICR mouse at 5 mg/kg, po; assay type: ADME, organism-based; conditions: in vivo
Cell membrane = assay: Induction of bacterial cell membrane damage in methicillin resistant Staphylococcus aureus ATCC 33592 assessed as increase in fluorescence intensity at MIC incubated for 2 hrs by PI staining based microplate reader assay; assay type: cell membranes
[23] = test system: Staphylococcus epidermidis; assay: Drug resistance development in Staphylococcus epidermidis ATCC 12228 assessed as increase in MIC value measured after 7 passages by broth microdilution method; assay type: functional, organism-based
Bacillus subtilis = assay: Antibacterial activity against Bacillus subtilis CMCC 63501 incubated for 18 hrs by serial two-fold dilution method; assay type: functional
Staphylococcus aureus [24] = assay: Antibacterial activity against methicillin resistant Staphylococcus aureus ATCC 43300 infected in ip dosed ICR mouse systemic infection model pretreated with bacteria for 30 mins followed by compound addition and measured for 7 days; assay type: functional, organism-based; conditions: dose 1.25-5 mg/kg, time 7.0 day
Staphylococcus aureus [25] = assay: Potency index, ratio of vancomycin MIC to test compound MIC for antibacterial activity against methicillin resistant Staphylococcus aureus ATCC 43300; assay type: functional
Enterococcus faecium = assay: Antibacterial activity against Enterococcus faecium ATCC 700221 incubated for 18 hrs by serial two-fold dilution method; assay type: functional
Staphylococcus aureus [26] = assay: Antibacterial activity against methicillin resistant Staphylococcus aureus ATCC 33592 assessed as surface collapse at MIC incubated for 1 to 6 hrs by SEM analysis; assay type: functional, organism-based; conditions: time 1-6 hrs
Staphylococcus aureus [27] = assay: Bactericidal activity against methicillin resistant Staphylococcus aureus ATCC 33592 at 2.5 times MIC measured after 2 to 24 hrs by time-kill kinetics assay; assay type: functional; conditions: time 2-24 hrs
[28] = Cmax in ICR mouse at 1 mg/kg, iv; assay type: ADME, organism-based; conditions: in vivo
Staphylococcus aureus [29] = assay: Potency index, ratio of vancomycin MIC to test compound MIC for antibacterial activity against methicillin resistant Staphylococcus aureus ATCC 33592; assay type: functional
Staphylococcus aureus [30] = assay: Potency index, ratio of griseofamine A MIC to test compound MIC for antibacterial activity against methicillin resistant Staphylococcus aureus ATCC 43300; assay type: functional
[31] = Clearance in ICR mouse at 1 mg/kg, iv; assay type: ADME, organism-based; conditions: in vivo
Staphylococcus aureus [32] = assay: Antibacterial activity against methicillin resistant Staphylococcus aureus ATCC 43300 infected in ICR mouse systemic infection model assessed as reduction in bacterial burden in spleen at 2.5 mg/kg, ip pretreated with bacteria for 30 mins followed by compound addition and measured for 7 days; assay type: functional, organism-based; conditions: time 7.0 day
Staphylococcus aureus [33] = assay: Drug resistance development in methicillin resistant Staphylococcus aureus […] assessed as increase in MIC value measured after 8 passages by broth microdilution method; assay type: functional
Staphylococcus aureus [34] = assay: Antibacterial activity against methicillin resistant Staphylococcus aureus ATCC 33592 assessed as increase in cell aggregation at MIC incubated for 1 to 6 hrs by SEM analysis; assay type: functional, organism-based; conditions: time 1-6 hrs
Staphylococcus aureus [35] = assay: Antibacterial activity against methicillin resistant Staphylococcus aureus ATCC 43300 infected in ICR mouse systemic infection model assessed as reduction in bacterial burden in heart at 2.5 mg/kg, ip pretreated with bacteria for 30 mins followed by compound addition and measured for 7 days; assay type: functional, organism-based; conditions: time 7.0 day
[36] = AUC(0 to infinity) in ICR mouse at 5 mg/kg, po; assay type: ADME, organism-based; conditions: in vivo
[37] = MRT(0 to infinity) in ICR mouse at 1 mg/kg, iv; assay type: ADME, organism-based; conditions: in vivo
[38] = AUC(0 to t) in ICR mouse at 5 mg/kg, po; assay type: ADME, organism-based; conditions: in vivo
Staphylococcus aureus [39] = assay: Drug resistance development in methicillin resistant Staphylococcus aureus ATCC 43300 assessed as increase in MIC value measured after 7 passages by broth microdilution method; assay type: functional, organism-based
[40] = Volume of distribution in ICR mouse at 1 mg/kg, iv; assay type: ADME, organism-based; conditions: in vivo
[41] = AUC(0 to infinity) in ICR mouse at 1 mg/kg, iv; assay type: ADME, organism-based; conditions: in vivo
Staphylococcus aureus [42] = assay: Drug resistance development in methicillin resistant Staphylococcus aureus ATCC 43300 assessed as increase in MIC value measured after 8 passages by broth microdilution method; assay type: functional

## C/C(O)=C1\C(=O)[C@@H]2Cc3c([nH]c4ccccc34)[C@@H](c3ccc(-c4cc(F)cc(F)c4)cc3)N2C1=O
Staphylococcus aureus [1]
  Activity: 87.5%
Staphylococcus aureus [2]
  Activity: Active
[3]
  half-life: 7.91 h
Staphylococcus aureus [4]
  Activity: 75%
[5]
  MRT inf: 12.7 h
[6]
  MRT last: 10.4 h
[7]
  Cmax: 233 ng/mL
Staphylococcus aureus [8]
  MBC: 1 µg/mL (≈ 2.13 µM)
[9]
  Tmax: 3.33 h
Staphylococcus aureus [10]
  MIC: 0.031 µg/mL (≈ 0.0659 µM)
Staphylococcus aureus [11]
  MIC: 2 µg/mL
Staphylococcus aureus [12]
  Activity: Active
[13]
  MBC: 0.25 µg/mL (≈ 0.531 µM)
Staphylococcus aureus [14]
  MBC: 0.5 µg/mL (≈ 1.06 µM)
[15]
  Activity: Non-Toxic
Staphylococcus aureus [16]
  Activity: inactive
[17]
  Activity: Non-Toxic
Staphylococcus aureus [18]
  Ratio: 128
Staphylococcus aureus [19]
  inhibition: Dose-Dependent Effect
Staphylococcus aureus [20]
  MIC: 0.063 µg/mL (≈ 0.134 µM)
[21]
  MRT last: 10.6 h
[22]
  bioavailability: 11.6%
Cell membrane
  Activity: Active
[23]
  Activity: inactive
Bacillus subtilis
  MIC: 0.14 µg/mL (≈ 0.298 µM)
Staphylococcus aureus [24]
  Activity: Dose-Dependent Effect
Staphylococcus aureus [25]
  Ratio: 8
Enterococcus faecium
  MIC: 0.45 µg/mL (≈ 0.956 µM)
Staphylococcus aureus [26]
  Activity: Active
Staphylococcus aureus [27]
  Activity: 100%
[28]
  Cmax: 748 ng/mL
Staphylococcus aureus [29]
  Ratio: 8
Staphylococcus aureus [30]
  Ratio: 128
[31]
  clearance: 3.88 mL/min/kg
Staphylococcus aureus [32]
  Activity: Active
Staphylococcus aureus [33]
  MIC: 2 µg/mL
Staphylococcus aureus [34]
  Activity: Active
Staphylococcus aureus [35]
  Activity: Active
[36]
  AUC(0-inf): 2570 ng·h/mL
[37]
  MRT inf: 11.1 h
[38]
  AUC(0-t): 2450 ng·h/mL
Staphylococcus aureus [39]
  Activity: inactive
[40]
  Vd: 2.55 L/kg
[41]
  AUC(0-inf): 4290 ng·h/mL
Staphylococcus aureus [42]
  MIC: 2 µg/mL

— ChEMBL document CHEMBL5608208, “Design, synthesis of griseofamine A derivatives and development of potent antibacterial agents against MRSA” (Eur J Med Chem, 2024)
